Test results as given in patent publication US20240208992A1, “MACROCYCLES AS CFTR MODULATORS” (Idorsia Pharmaceuticals Ltd, priority 2021, published 2024).

Molecular target: human F508del-CFTR (Homo sapiens, UniProt P13569, DEL508-508)
Test: F508del-CFTR cell surface expression (corrector activity), DiscoveRx ß-galactosidase complementation chemiluminescence assay in recombinant U2OS cell line;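 also: U2OS cells co-expressing ProLink-tagged F508del-CFTR and a membrane-anchored enzyme acceptor, where more surface CFTR restores β-galactosidase activity measured by chemiluminescence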
Details: U2OS cell line, 16h compound incubation; for EC50: EC50, F508del-CFTR cell surface expression, geomean values; for Emax: U2OS, in relation to the Emax of the corrector lumacaftor (=100%), arithmetic mean values

Chain of human F508del-CFTR (P13569 with tags, fused parts or gaps DEL508-508): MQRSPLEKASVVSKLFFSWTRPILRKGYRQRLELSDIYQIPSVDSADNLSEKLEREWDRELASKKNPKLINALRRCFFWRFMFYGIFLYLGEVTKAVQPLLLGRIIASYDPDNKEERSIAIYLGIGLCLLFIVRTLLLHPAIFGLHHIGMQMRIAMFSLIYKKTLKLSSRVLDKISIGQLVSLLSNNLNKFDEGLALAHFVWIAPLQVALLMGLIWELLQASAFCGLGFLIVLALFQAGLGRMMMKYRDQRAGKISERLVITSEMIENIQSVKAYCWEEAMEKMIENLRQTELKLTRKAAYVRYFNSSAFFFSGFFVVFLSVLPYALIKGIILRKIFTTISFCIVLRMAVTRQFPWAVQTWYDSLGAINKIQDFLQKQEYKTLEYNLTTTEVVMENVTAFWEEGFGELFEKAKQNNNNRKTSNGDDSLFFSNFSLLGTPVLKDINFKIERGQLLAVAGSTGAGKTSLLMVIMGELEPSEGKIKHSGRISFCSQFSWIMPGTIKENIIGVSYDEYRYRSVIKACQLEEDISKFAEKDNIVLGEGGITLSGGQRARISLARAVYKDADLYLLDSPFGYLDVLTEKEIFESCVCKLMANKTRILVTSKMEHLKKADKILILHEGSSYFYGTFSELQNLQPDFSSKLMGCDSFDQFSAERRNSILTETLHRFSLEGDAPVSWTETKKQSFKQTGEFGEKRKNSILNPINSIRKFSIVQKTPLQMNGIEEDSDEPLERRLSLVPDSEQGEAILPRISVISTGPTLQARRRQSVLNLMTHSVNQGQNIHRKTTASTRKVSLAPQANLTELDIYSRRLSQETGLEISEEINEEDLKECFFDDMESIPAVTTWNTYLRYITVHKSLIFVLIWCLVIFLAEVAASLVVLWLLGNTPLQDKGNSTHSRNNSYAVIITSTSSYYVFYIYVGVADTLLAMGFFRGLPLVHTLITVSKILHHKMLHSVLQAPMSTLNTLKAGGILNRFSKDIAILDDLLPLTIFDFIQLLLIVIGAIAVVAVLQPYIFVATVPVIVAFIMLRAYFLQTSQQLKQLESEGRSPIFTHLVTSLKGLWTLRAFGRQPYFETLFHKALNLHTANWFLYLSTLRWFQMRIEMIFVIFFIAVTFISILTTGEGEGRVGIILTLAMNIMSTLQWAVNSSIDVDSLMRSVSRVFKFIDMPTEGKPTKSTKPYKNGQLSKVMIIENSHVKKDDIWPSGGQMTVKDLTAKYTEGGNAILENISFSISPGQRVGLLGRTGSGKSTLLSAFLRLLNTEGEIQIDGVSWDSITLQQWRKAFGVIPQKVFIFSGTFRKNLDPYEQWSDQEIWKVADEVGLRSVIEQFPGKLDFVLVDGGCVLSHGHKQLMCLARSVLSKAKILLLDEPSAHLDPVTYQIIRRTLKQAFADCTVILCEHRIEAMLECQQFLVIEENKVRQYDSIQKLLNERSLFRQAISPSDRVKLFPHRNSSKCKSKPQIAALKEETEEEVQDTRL

SMILES | EC50 [nM] | Emax [%]
COc1nccc2c1C(=O)N[C@H](C(=O)NCCc1cccc(C)c1)CC(=O)N(C)[C@@H](CC(C)C)C(=O)N1CCCC[C@@H]1C(=O)N[C@H](Cc1ccccc1)CO2 [Example 186, (7S,11S,17aR,20R)-20-benzyl-11-isobutyl-4-methoxy-10-methyl-N-(3-methylphenethyl)-5,9,12,18-tetraoxo-5,6,7,8,9,10,11,12,15,16,17,17a,18,19,20,21-hexadecahydro-14H-dipyrido[2,1-f:3′,4′-p][1]oxa[4,7,10,14]tetraazacycloheptadecine-7-carboxamide] | 644 | 209
COc1nccc2c1C(=O)N[C@H](C(=O)NCCc1cnn(C3CC3)n1)CC(=O)N(C)[C@@H](CC(C)C)C(=O)N1CCCC[C@@H]1C(=O)N[C@H](Cc1ccccc1)CO2 [Example 187, (7S,11S,17aR,20R)-20-benzyl-N-(2-(2-cyclopropyl-2H-1,2,3-triazol-4-yl)ethyl)-11-isobutyl-4-methoxy-10-methyl-5,9,12,18-tetraoxo-5,6,7,8,9,10,11,12,15,16,17,17a,18,19,20,21-hexadecahydro-14H-dipyrido[2,1-f:3′,4′-p][1]oxa[4,7,10,14]tetraazacycloheptadecine-7-carboxamide] | 645 | 267
COc1cnn(CCNC(=O)[C@@H]2CC(=O)N(C)[C@@H](CC(C)C)C(=O)N(C)C3(CC3)C(=O)N[C@H](Cc3ccccc3)COc3cnc4ccc(F)cc4c3C(=O)N2)c1 [Example 188, (3′S,7′S,13′R)-13′-benzyl-20′-fluoro-7′-isobutyl-N-(2-(4-methoxy-1H-pyrazol-1-yl)ethyl)-6′,9′-dimethyl-1′,5′,8′,11′-tetraoxo-2′,3′,4′,5′,6′,7′,8′,9′,11′,12′,13′,14′-dodecahydro-1′H-spiro[cyclopropane-1,10′-[1]oxa[4,7,10,14]tetraazacycloheptadecino[17,16-c]quinoline]-3′-carboxamide] | 586 | 275
C#Cc1cccc(CCNC(=O)[C@@H]2CC(=O)N(C)[C@@H](CC(C)C)C(=O)N3CCCC[C@@H]3C(=O)N[C@H](Cc3ccccc3)COc3ccnc(OC)c3C(=O)N2)c1 [Example 189, (7S,11S,17aR,20R)-20-benzyl-N-(3-ethynylphenethyl)-11-isobutyl-4-methoxy-10-methyl-5,9,12,18-tetraoxo-5,6,7,8,9,10,11,12,15,16,17,17a,18,19,20,21-hexadecahydro-14H-dipyrido[2,1-f:3′,4′-p][1]oxa[4,7,10,14]tetraazacycloheptadecine-7-carboxamide] | 453 | 270
COc1nccc2c1C(=O)N[C@H](C(=O)NCCc1nc3c(s1)CCC3)CC(=O)N(C)[C@@H](CC(C)C)C(=O)N1CCCC[C@@H]1C(=O)N[C@H](Cc1ccccc1)CO2 [Example 190, (7S,11S,17aR,20R)-20-benzyl-N-(2-(5,6-dihydro-4H-cyclopenta[d]thiazol-2-yl)ethyl)-11-isobutyl-4-methoxy-10-methyl-5,9,12,18-tetraoxo-5,6,7,8,9,10,11,12,15,16,17,17a,18,19,20,21-hexadecahydro-14H-dipyrido[2,1-f:3′,4′-p][1]oxa[4,7,10,14]tetraazacycloheptadecine-7-carboxamide] | 334 | 310
COc1nccc2c1C(=O)N[C@H](C(=O)NCCc1cc(C(F)F)no1)CC(=O)N(C)[C@@H](CC(C)C)C(=O)N1CCCC[C@@H]1C(=O)N[C@H](Cc1ccccc1)CO2 [Example 191, (7S,11S,17aR,20R)-20-benzyl-N-(2-(3-(difluoromethyl)isoxazol-5-yl)ethyl)-11-isobutyl-4-methoxy-10-methyl-5,9,12,18-tetraoxo-5,6,7,8,9,10,11,12,15,16,17,17a,18,19,20,21-hexadecahydro-14H-dipyrido[2,1-f:3′,4′-p][1]oxa[4,7,10,14]tetraazacycloheptadecine-7-carboxamide] | 474 | 295
COc1cc2c(cc1OC)C(=O)N[C@H](C(=O)NCCc1ccc(C)cc1)CC(=O)N(C)[C@@H](CC(C)C)C(=O)N(C)CC(=O)N[C@H](Cc1ccccc1)CO2 [Example 192, (3R,9S,13S)-3-benzyl-9-isobutyl-17,18-dimethoxy-7,10-dimethyl-N-(4-methylphenethyl)-5,8,11,15-tetraoxo-2,3,4,5,6,7,8,9,10,11,12,13,14,15-tetradecahydrobenzo[p][1]oxa[4,7,10,14]tetraazacycloheptadecine-13-carboxamide] | 316 | 107
COc1ccc(CCNC(=O)[C@@H]2CC(=O)N(C)[C@@H](CC(C)C)C(=O)N(C)CC(=O)N[C@H](Cc3ccccc3)COc3cc(OC)c(OC)cc3C(=O)N2)cc1 [Example 193, (3R,9S,13S)-3-benzyl-9-isobutyl-17,18-dimethoxy-N-(4-methoxyphenethyl)-7,10-dimethyl-5,8,11,15-tetraoxo-2,3,4,5,6,7,8,9,10,11,12,13,14,15-tetradecahydrobenzo[p][1]oxa[4,7,10,14]tetraazacycloheptadecine-13-carboxamide] | 521 | 118
CCOc1cccc(CCNC(=O)[C@@H]2CC(=O)N(C)[C@@H](CC(C)C)C(=O)N(C)CC(=O)N[C@H](Cc3ccccc3)COc3cc(OC)c(OC)cc3C(=O)N2)c1 [Example 194, (3R,9S,13S)-3-benzyl-N-(3-ethoxyphenethyl)-9-isobutyl-17,18-dimethoxy-7,10-dimethyl-5,8,11,15-tetraoxo-2,3,4,5,6,7,8,9,10,11,12,13,14,15-tetradecahydrobenzo[p][1]oxa[4,7,10,14]tetraazacycloheptadecine-13-carboxamide] | 613 | 178
COc1cccc(CCNC(=O)[C@@H]2CC(=O)N(C)[C@@H](CC(C)C)C(=O)N(C)CC(=O)N[C@H](Cc3ccccc3)COc3cc(OC)c(OC)cc3C(=O)N2)c1 [Example 195, (3R,9S,13S)-3-benzyl-9-isobutyl-17,18-dimethoxy-N-(3-methoxyphenethyl)-7,10-dimethyl-5,8,11,15-tetraoxo-2,3,4,5,6,7,8,9,10,11,12,13,14,15-tetradecahydrobenzo[p][1]oxa[4,7,10,14]tetraazacycloheptadecine-13-carboxamide] | 889 | 202
COc1cc2c(cc1OC)C(=O)N[C@H](C(=O)NCCc1ccccc1F)CC(=O)N(C)[C@@H](CC(C)C)C(=O)N(C)CC(=O)N[C@H](Cc1ccccc1)CO2 [Example 196, (3R,9S,13S)-3-benzyl-N-(2-fluorophenethyl)-9-isobutyl-17,18-dimethoxy-7,10-dimethyl-5,8,11,15-tetraoxo-2,3,4,5,6,7,8,9,10,11,12,13,14,15-tetradecahydrobenzo[p][1]oxa[4,7,10,14]tetraazacycloheptadecine-13-carboxamide] | 425 | 106
COc1cc2c(cc1OC)C(=O)N[C@H](C(=O)NCCc1ccc(N(C)C)cc1)CC(=O)N(C)[C@@H](CC(C)C)C(=O)N(C)CC(=O)N[C@H](Cc1ccccc1)CO2 [Example 197, (3R,9S,13S)-3-benzyl-N-(4-(dimethylamino)phenethyl)-9-isobutyl-17,18-dimethoxy-7,10-dimethyl-5,8,11,15-tetraoxo-2,3,4,5,6,7,8,9,10,11,12,13,14,15-tetradecahydrobenzo[p][1]oxa[4,7,10,14]tetraazacycloheptadecine-13-carboxamide] | 579 | 132
COc1cccc2c1C(=O)N[C@H](C(=O)NCCc1ccc3c(c1)OCO3)CC(=O)N(C)[C@@H](CC(C)C)C(=O)N(CCC1CCCCC1)CC(=O)N[C@H](Cc1ccccc1)CO2 [Example 198, (3R,9S,13S)-N-(2-(benzo[d][1,3]dioxol-5-yl)ethyl)-3-benzyl-7-(2-cyclohexylethyl)-9-isobutyl-16-methoxy-10-methyl-5,8,11,15-tetraoxo-2,3,4,5,6,7,8,9,10,11,12,13,14,15-tetradecahydrobenzo[p][1]oxa[4,7,10,14]tetraazacycloheptadecine-13-carboxamide] | 195 | 243
COc1cccc(CCNC(=O)[C@@H]2CC(=O)N(C)[C@@H](CC(C)C)C(=O)N(CCC3CCCCC3)CC(=O)N[C@H](Cc3ccccc3)COc3cccc(OC)c3C(=O)N2)c1 [Example 199, (3R,9S,13S)-3-benzyl-7-(2-cyclohexylethyl)-9-isobutyl-16-methoxy-N-(3-methoxyphenethyl)-10-methyl-5,8,11,15-tetraoxo-2,3,4,5,6,7,8,9,10,11,12,13,14,15-tetradecahydrobenzo[p][1]oxa[4,7,10,14]tetraazacycloheptadecine-13-carboxamide] | 230 | 214
[2H]C([2H])([2H])Oc1cccc(CCNC(=O)[C@@H]2CC(=O)N(C)[C@@H](CC(C)C)C(=O)N(CCC3CCCCC3)CC(=O)N[C@H](Cc3ccccc3)COc3cccc(OC)c3C(=O)N2)c1 [Example 200, (3R,9S,13S)-3-benzyl-7-(2-cyclohexylethyl)-9-isobutyl-16-methoxy-N-(3-(methoxy-d3)phenethyl)-10-methyl-5,8,11,15-tetraoxo-2,3,4,5,6,7,8,9,10,11,12,13,14,15-tetradecahydrobenzo[p][1]oxa[4,7,10,14]tetraazacycloheptadecine-13-carboxamide] | 210 | 270
CCOc1cccc(CCNC(=O)[C@@H]2CC(=O)N(C)[C@@H](CC(C)C)C(=O)N(CCC3CCCCC3)CC(=O)N[C@H](Cc3ccccc3)COc3cccc(OC)c3C(=O)N2)c1 [Example 201, (3R,9S,13S)-3-benzyl-7-(2-cyclohexylethyl)-N-(3-ethoxyphenethyl)-9-isobutyl-16-methoxy-10-methyl-5,8,11,15-tetraoxo-2,3,4,5,6,7,8,9,10,11,12,13,14,15-tetradecahydrobenzo[p][1]oxa[4,7,10,14]tetraazacycloheptadecine-13-carboxamide] | 222 | 109
